Test results reported in patent US8680275B2, “Fused heterocyclic compounds as orexin receptor modulators” (Janssen Pharmaceutica NV, priority 2009, dated 2014).

Tests used:
human orexin-2 receptor = human orexin-2 receptor (Homo sapiens (Human), UniProt O43614); experiment: Human orexin 2 receptor radioligand binding ([3H]-EMPA competition); conditions: HEK293 cells stably expressing human orexin-2 receptor; [3H]-EMPA 5 nM final; read-out: OR-2 Ki
Method in brief: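 Competition binding on HEK293 cells stably expressing human orexin-2 receptor, using 5 nM final [3H]-EMPA in PBS, compounds 0.1 nM to 10 μM (DMSO ≤0.1%). 60 min at room temperature, then filtration and scintillation counting; nonspecific binding defined with 10 μM of a reference antagonist.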

human orexin 1 receptor = human orexin 1 receptor (Homo sapiens (Human), UniProt O43613); experiment: Human orexin 1 receptor radioligand binding ([3H]-SB674042 competition); conditions: CHO cells stably expressing human orexin 1 receptor; [3H]-SB674042 4 nM final; read-out: OR-1 Ki
Method in brief: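 CHO cells stably expressing human OX1R incubated 60 min at room temperature with [3H]-SB674042 and compounds (7 concentrations, 0.1 nM–10 μM; DMSO ≤0.1%) in PBS. Nonspecific binding defined with 10 μM of a reference urea antagonist; bound radioactivity measured by filtration and scintillation counting.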

human orexin 1 receptor, sequence (O43613 whole entry): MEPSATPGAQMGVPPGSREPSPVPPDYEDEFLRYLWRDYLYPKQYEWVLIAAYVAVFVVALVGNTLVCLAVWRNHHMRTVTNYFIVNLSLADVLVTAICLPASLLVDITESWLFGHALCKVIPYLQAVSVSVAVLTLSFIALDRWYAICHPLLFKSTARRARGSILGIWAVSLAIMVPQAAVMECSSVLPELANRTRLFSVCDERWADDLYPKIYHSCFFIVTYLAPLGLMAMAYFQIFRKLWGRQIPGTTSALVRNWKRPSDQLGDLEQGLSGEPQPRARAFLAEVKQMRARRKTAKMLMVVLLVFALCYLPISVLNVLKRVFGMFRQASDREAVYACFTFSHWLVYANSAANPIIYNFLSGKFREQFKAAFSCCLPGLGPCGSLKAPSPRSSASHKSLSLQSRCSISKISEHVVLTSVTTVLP
human orexin-2 receptor, sequence (O43614 whole entry): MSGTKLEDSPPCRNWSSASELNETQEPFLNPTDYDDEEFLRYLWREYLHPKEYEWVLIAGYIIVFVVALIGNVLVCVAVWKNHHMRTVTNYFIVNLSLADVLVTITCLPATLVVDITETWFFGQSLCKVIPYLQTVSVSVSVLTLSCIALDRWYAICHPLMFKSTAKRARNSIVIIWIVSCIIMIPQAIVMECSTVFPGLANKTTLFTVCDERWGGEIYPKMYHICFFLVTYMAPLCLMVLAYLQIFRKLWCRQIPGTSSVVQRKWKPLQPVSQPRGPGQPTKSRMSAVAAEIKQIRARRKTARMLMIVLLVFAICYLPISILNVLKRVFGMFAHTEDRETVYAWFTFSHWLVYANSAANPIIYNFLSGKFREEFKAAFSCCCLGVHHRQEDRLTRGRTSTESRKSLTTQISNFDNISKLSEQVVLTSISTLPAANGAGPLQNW

Cc1onc(-c2ccccc2)c1C(=O)N1CC[C@H]2CN(c3ccnc(-c4ccccc4)n3)[C@H]2C1 [Example 197, (5-Methyl-3-phenylisoxazol-4-yl)((1R,6S)-8-(2-phenylpyrimidin-4-yl)-3,8-diazabicyclo[4.2.0]octan-3-yl)methanone]
Ki (human orexin-2 receptor): 3.1 µM
Ki (human orexin 1 receptor): 2.6 µM

Cc1nc(N2C[C@@H]3CCN(C(=O)c4ccccc4-n4nccn4)C[C@@H]32)nc(C)c1C [Example 270, (1R,6S)-3-{[2-(2H-1,2,3-Triazol-2-yl)phenyl]carbonyl}-8-(4,5,6-trimethylpyrimidin-2-yl)-3,8-diazabicyclo[4.2.0]octane]
Ki (human orexin-2 receptor): 0.011 µM
Ki (human orexin 1 receptor): 0.016 µM
